How the values were obtained:
[1] = biological target: vasopressin V1 receptor (rat liver plasma membranes) (Rattus norvegicus, UniProt P30560); assay: Binding Assay to Rat Hepatic V1 Receptors; conditions: rat hepatic V1
Method: Rat liver plasma membranes expressing the vasopressin V1 receptor subtypes are isolated by sucrose density gradient according to the method described by Lesko et al., (1973). These membranes are quickly suspended in 50.0 mM Tris.HCl buffer, pH 7.4, containing 0.2% bovine serum albumin (BSA) and 0.1 mM phenylmethylsulfonylfluoride (PMSF) and kept frozen at -70° C. until used in subsequent binding experiments. For binding experiments, the following is added to the wells of a ninety-six well format microtiter plate: 100 μl of 100.0 mM Tris.HCl buffer containing 10.0 mM MgCl2, 0.2% heat inactivated BSA and a mixture of protease inhibitors: leupeptin, 1.0 mg %; aprotinin, 1.0 mg %; 1,10-phenanthroline,2.0 mg %; trypsin inhibitor, 10.0 mg % and 0.1 mM PMSF, 20.0 μl of [phenylalanyl-3,4,5,-^3 H] vasopressin (S.A. 45.1 Ci/mmole) at 0.8 nM, and the reaction initiated by the addition of 80 μl of tissue membranes containing 20 μg of tissue protein. The plates are kept undisturbed on the bench top at room temperature for 120 min. to reach equilibrium. Non-specific samples are assayed in the presence of 0.1 μM of the unlabeled antagonist phenylalanylvasopressin, added in 20.0 μl volume.
For test compounds, these are solubilized in 50% dimethylsulfoxide (DMSO) and added in 20.0 μl volume to a final incubation volume of 200 μl. Upon completion of binding, the content of each well is filtered off, using a Brandel® cell Harvester (Gaithersburg, Md.). The radioactivity trapped on the filter disk by the ligand-receptor complex is assessed by liquid scintillation counting in a Packard LS Counter, with an efficiency of 65% for tritium.

vasopressin V2 = assay: Vasopressin V2 Antagonist Activity in Conscious Hydrated Rats (diuretic effect); assay type: in vivo, normal Sprague-Dawley rats; conditions: AVP 0.4 μg/kg i.p.
Method: Conscious hydrated rats are treated with compounds under study from 0.1 to 100 mg/kg orally or vehicle. Two to four rats are used for each compound. One hour later, arginine vasopressin (AVP, antidiuretic hormore, ADH) dissolved in peanut oil is administered at 0.4 μg/kg intraperitoneally. Two rats in each test would not receive arginine vasopressin but only the vehicle (peanut oil) to serve as water-loading control. Twenty minutes later each rat is given 30 mL/kg of deionized water orally by gavage and is placed individually in a metabolic cage equipped with a funnel and a graduated glass cylinder to collect urine for four hours. Urine volume is measured and osmolality analyzed by use of a Fiske One-Ten osmometer (Fiske Assoc., Norwood, Mass., USA). Urinary sodium, potassium, and chloride are analyzed by use of ion-specific electrodes in a Beckman E3 (Electrolyte 3) Analyzer. In the following results, […] and decreased osmolality relative to AVP-control indicates activity.

[2] = biological target: T1, rat kidney medullary V2 receptors (Rattus norvegicus, UniProt Q00788); assay: Binding Assay to Rat Kidney Medullary V2 Receptors; conditions: rat kidney medullary V2
T1 construct: Medullary tissues from rat kidneys are dissected out; from tissue; host or cells: rat kidney medulla membranes
T1 sequence (Q00788 whole entry): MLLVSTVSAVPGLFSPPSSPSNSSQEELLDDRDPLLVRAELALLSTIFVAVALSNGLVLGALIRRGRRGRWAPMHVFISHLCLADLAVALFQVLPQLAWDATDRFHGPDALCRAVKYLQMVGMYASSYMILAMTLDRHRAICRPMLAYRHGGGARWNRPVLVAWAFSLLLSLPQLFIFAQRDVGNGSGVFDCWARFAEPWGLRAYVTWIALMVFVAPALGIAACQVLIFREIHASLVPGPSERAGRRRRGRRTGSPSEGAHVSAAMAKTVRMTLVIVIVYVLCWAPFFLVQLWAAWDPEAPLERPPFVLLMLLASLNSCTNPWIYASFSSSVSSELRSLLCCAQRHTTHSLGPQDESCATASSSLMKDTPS
Method: Medullary tissues from rat kidneys are dissected out, cut into small pieces and soaked in a […] sodium chloride solution containing 1.0 mM EDTA with many changes of the liquid phase, until the solution is clear of blood. The tissue is homogenized in a 0.25M sucrose solution containing 1.0 mM EDTA and 0.1 mM PMSF using a Potter-Elvehjem homogenizer with a teflon pestle. The homogenate is filtered through several layers (4 layers) of cheese cloth. The filtrate is rehomogenized using a dounce homogenizer, with a tight fitting pestle. The final homogenate is centrifuged at 1500×g for 15 min. The nuclear pellet is discarded and the supernatant fluid recentrifuged at 40,000×g for 30 min. The resulting pellet formed contains a dark inner part with the exterior, slightly pink. The pink outer part is suspended in a small amount of 50.0 mM Tris.HCl buffer, pH 7.4. The protein content is determined by the Lowry's method (Lowry et al., J. Biol. Chem., 1953). The membrane suspension is stored at -70° C., in 50.0 mM Tris.HCl, containing 0.2% inactivated BSA and 0.1 mM PMSF in aliquots of 1.0 ml containing 10.0 mg protein per ml of suspension until use in subsequent binding experiments.
For binding experiments, the following is added in μl volume to wells of a 96 well format of a microtiter plate: 100.0 μl of 100.0 mM Tris.HCl buffer containing 0.2% heat inactivated BSA, 10.0 mM MgCl2 and a mixture of protease inhibitors: leupeptin, 1.0 mg %; aprotinin, 1.0 mg %; 1,10-phenanthroline, 2.0 mg %; trypsin inhibitor, 10.0 mg % and 0.1 mM PMSF, 20.0 μl of [^3 H] Arginine^8, vasopressin (S.A. 75.0 Ci/mmole) at 0.8 nM and the reaction initiated by the addition of 80.0 μl of tissue membranes (200.0 μg tissue protein). The plates are left undisturbed on the bench top for 120 min to reach equilibrium. Non-specific binding is assessed in the presence of 1.0 μM of unlabeled ligand, added in 20 μl volume. For test compounds, these are solubilized in 50% dimethylsulfoxide (DMSO) and added in 20.0 μl volume to a final incubation volume of 200 μl. Upon completion of binding, the content of each well is filtered off, using a Brandel® cell Harvester (Gaithersburg, Md.). The radioactivity trapped on the filter disk by the ligand-receptor complex is assessed by liquid scintillation counting in a Packard LS Counter, with an efficiency of 65% for tritium.

vasopressin V1 = assay: Vasopressin V1 Antagonist Activity in Conscious Rats (vasopressin vasopressor response); assay type: in vivo, rat (spontaneously hypertensive rats); set-up: Average Change: unit not given here
Method: Conscious rats are restrained in a supine position with elastic tape. The area at the base of the tail is locally anesthetized by subcutaneous infiltration with 2% procaine (0.2 ml). Using aseptic technique the ventral caudal tail artery is isolated and a cannula made of PE 10 and 20 (heat-fused) tubing is passed into the lower abdominal aorta. The cannula is secured, heparinized (1000 i.u./cc), sealed and the wound closed with one or two stitches of Dexon 4-0. The caudal vein is also cannulated in the same manner for intravenous drug administration. The duration of the surgery is approximately 5 minutes. Additional local anesthesia (2% procaine or lidocaine) is provided as needed.
The animals are placed in plastic restraining cages in an upright position. The cannula is attached to a Statham P23Db pressure transducer and pulsatile blood pressure is recorded. […] The vasopressin injections are repeated 30, 60, 90, 120, 180, 240 and 300 min. later. Percentage of antagonism by the compound is calculated using the pre-drug vasopressin vasopressor response as 100%.

[3] = 10 mg/kg i.v., VAS 0.01 i.u./kg, 30 min
[4] = 10 mg/kg i.v., VAS 0.02 i.u./kg, 30 min
[5] = 20 mg/kg i.v., VAS 0.01 i.u./kg, 60 min
[6] = 20 mg/kg i.v., VAS 0.01 i.u./kg, 90 min
[7] = 20 mg/kg i.v., VAS 0.01 i.u./kg, 120 min
[8] = 20 mg/kg i.v., VAS 0.01 i.u./kg, 180 min
[9] = 20 mg/kg i.v., VAS 0.01 i.u./kg, 240 min
[10] = 20 mg/kg i.v., VAS 0.01 i.u./kg, 300 min
[11] = 20 mg/kg i.v., VAS 0.02 i.u./kg, 60 min
[12] = 20 mg/kg i.v., VAS 0.02 i.u./kg, 90 min
[13] = 20 mg/kg i.v., VAS 0.02 i.u./kg, 120 min
[14] = 20 mg/kg i.v., VAS 0.02 i.u./kg, 180 min
[15] = 20 mg/kg i.v., VAS 0.02 i.u./kg, 240 min
[16] = 20 mg/kg i.v., VAS 0.02 i.u./kg, 300 min
[17] = 30 mg/kg p.o., VAS 0.01 i.u./kg, 30 min
[18] = 30 mg/kg p.o., VAS 0.01 i.u./kg, 60 min
[19] = 30 mg/kg p.o., VAS 0.01 i.u./kg, 90 min
[20] = 30 mg/kg p.o., VAS 0.01 i.u./kg, 120 min
[21] = 30 mg/kg p.o., VAS 0.01 i.u./kg, 180 min
[22] = 30 mg/kg p.o., VAS 0.01 i.u./kg, 240 min
[23] = 30 mg/kg p.o., VAS 0.02 i.u./kg, 30 min
[24] = 30 mg/kg p.o., VAS 0.02 i.u./kg, 60 min
[25] = 30 mg/kg p.o., VAS 0.02 i.u./kg, 90 min
[26] = 30 mg/kg p.o., VAS 0.02 i.u./kg, 120 min
[27] = 30 mg/kg p.o., VAS 0.02 i.u./kg, 180 min
[28] = 30 mg/kg p.o., VAS 0.02 i.u./kg, 240 min

vasopressin V1 receptor (rat liver plasma membranes), sequence (P30560 whole entry): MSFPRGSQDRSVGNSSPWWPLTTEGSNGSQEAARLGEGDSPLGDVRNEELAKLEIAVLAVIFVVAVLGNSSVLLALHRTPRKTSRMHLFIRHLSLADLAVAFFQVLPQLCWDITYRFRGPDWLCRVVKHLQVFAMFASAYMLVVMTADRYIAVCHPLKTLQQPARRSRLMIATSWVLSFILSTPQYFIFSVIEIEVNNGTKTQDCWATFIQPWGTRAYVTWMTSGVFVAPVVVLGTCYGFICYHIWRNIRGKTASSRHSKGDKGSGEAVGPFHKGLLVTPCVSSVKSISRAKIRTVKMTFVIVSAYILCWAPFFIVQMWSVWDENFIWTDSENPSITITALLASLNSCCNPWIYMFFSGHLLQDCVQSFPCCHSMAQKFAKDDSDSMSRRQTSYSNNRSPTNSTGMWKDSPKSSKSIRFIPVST

Compound: Cc1ccccc1C(=O)Nc1ccc(C(=O)N2Cc3ccccc3Sc3ccccc32)cc1 [Example 62, N-[4-[(Dibenz[b,f][1,4]thiazepin-10(11H)yl)carbonyl]-phenyl]-2-methylbenzamide]
- IC50 [1]: 404 nM
- Osmolality (vasopressin V2; 10 mg/kg orally): 1034 mOsm/kg
- Urine Volume (vasopressin V2; 10 mg/kg orally): 7.7 ml/4 hrs.
- IC50 [2]: 858 nM
- Average Change (vasopressin V1; [3]): 57
- Inhibition (vasopressin V1; [3]): -44%
- Average Change (vasopressin V1; [4]): 61.5
- Inhibition (vasopressin V1; [4]): -2%
- Average Change (vasopressin V1; [5]): 13
- Inhibition (vasopressin V1; [5]): 67%
- Average Change (vasopressin V1; [6]): 23
- Inhibition (vasopressin V1; [6]): 42%
- Average Change (vasopressin V1; [7]): 23.5
- Inhibition (vasopressin V1; [7]): 41%
- Average Change (vasopressin V1; [8]): 24.5
- Inhibition (vasopressin V1; [8]): 38%
- Average Change (vasopressin V1; [9]): 30
- Inhibition (vasopressin V1; [9]): 24%
- Average Change (vasopressin V1; [10]): 25
- Inhibition (vasopressin V1; [10]): 37%
- Average Change (vasopressin V1; [11]): 29.5
- Inhibition (vasopressin V1; [11]): 51%
- Average Change (vasopressin V1; [12]): 54
- Inhibition (vasopressin V1; [12]): 11%
- Average Change (vasopressin V1; [13]): 50
- Inhibition (vasopressin V1; [13]): 17%
- Average Change (vasopressin V1; [14]): 15
- Inhibition (vasopressin V1; [14]): 75%
- Average Change (vasopressin V1; [15]): 40.5
- Inhibition (vasopressin V1; [15]): 33%
- Average Change (vasopressin V1; [16]): 38
- Inhibition (vasopressin V1; [16]): 37%

Compound: O=C(Cc1ccccc1Cl)Nc1ccc(C(=O)N2Cc3ccccc3Cc3ccccc32)cc1 [Example 16, 2-Chloro-N-[4-[(6,11-dihydro-5H-dibenz[b,e]azepin-5-yl)carbonyl]phenyl]benzeneacetamide]
- IC50 [1]: 53 nM
- Osmolality (vasopressin V2; 30 mg/kg orally): 1257 mOsm/kg
- Urine Volume (vasopressin V2; 30 mg/kg orally): 7.2 ml/4 hrs.
- IC50 [2]: 65 nM
- Average Change (vasopressin V1; [17]): 25
- Inhibition (vasopressin V1; [17]): 15%
- Average Change (vasopressin V1; [18]): 30.5
- Inhibition (vasopressin V1; [18]): -3%
- Average Change (vasopressin V1; [19]): 28.5
- Inhibition (vasopressin V1; [19]): 3%
- Average Change (vasopressin V1; [20]): 23.5
- Inhibition (vasopressin V1; [20]): 20%
- Average Change (vasopressin V1; [21]): 30.5
- Inhibition (vasopressin V1; [21]): -3%
- Average Change (vasopressin V1; [22]): 30
- Inhibition (vasopressin V1; [22]): -2%
- Average Change (vasopressin V1; [23]): 27.5
- Inhibition (vasopressin V1; [23]): 17%
- Average Change (vasopressin V1; [24]): 29
- Inhibition (vasopressin V1; [24]): 12%
- Average Change (vasopressin V1; [25]): 40.5
- Inhibition (vasopressin V1; [25]): -23%
- Average Change (vasopressin V1; [26]): 29.5
- Inhibition (vasopressin V1; [26]): 11%
- Average Change (vasopressin V1; [27]): 26
- Inhibition (vasopressin V1; [27]): 21%
- Average Change (vasopressin V1; [28]): 30
- Inhibition (vasopressin V1; [28]): 9%
